# In US20250275959A1, “COMPOUNDS AND METHODS OF THEIR USE” (LEXICON PHARMACEUTICALS, INC., priority 2024, published 2025):
# Target: hACSL5 (Homo sapiens (Human), UniProt Q9ULC5)
# Test: Human ACSL5 coupled enzyme Amplex Red assay
# Type: biochemical
# Conditions: read-out: hACSL5 IC50
# Description: Human ACSL5 (33-683) was cloned with a C-terminal 6 His tag and expressed in insect cells (sf9) as per standard insect cell expression protocols. Human ACSL5 was enriched by affinity nickel affinity chromatography followed by Superdex S200 gel filtration column equilibrated in 20 mM HEPES pH 7.8, 500 mM NaCl, 1 mM TCEP, 5% glycerol, 0.1% Triton X^100.
# Inhibition of ACSL5 enzyme activity was monitored with a coupled enzyme Amplex Red assay.
# The assay is carried out in 384-well microtiterplates. In a total volume of […], compounds are preincubated with 20 nM ACSL5, in a buffer containing 150 mM MOPS-NaOH, 12 mM MgCl2, 0.03% (v/v) Triton X-100, 2.79 U mL-1 Peroxidase and 24 U mL-1 Acyl-CoA Oxidase (pH 7.6). The reaction is started by the addition of substrate and co factors (25 μM oleate, 30 μM CoA, 1 mM ATP and 50 μM Amplex Red) and the fluorescence detected after 10 minutes at 25° C. with a fluorescence reader (BMG-Fluostar; BMG-Technologies) using an excitation wavelength of 535 nm and an emission wavelength of 590 nm.
# Concentration-response titration points for each compound tested were filled to the Hill equation yielding concentrations of half maximal inhibition […] and maximal inhibition values.
# Chain of hACSL5 (Q9ULC5 33-683): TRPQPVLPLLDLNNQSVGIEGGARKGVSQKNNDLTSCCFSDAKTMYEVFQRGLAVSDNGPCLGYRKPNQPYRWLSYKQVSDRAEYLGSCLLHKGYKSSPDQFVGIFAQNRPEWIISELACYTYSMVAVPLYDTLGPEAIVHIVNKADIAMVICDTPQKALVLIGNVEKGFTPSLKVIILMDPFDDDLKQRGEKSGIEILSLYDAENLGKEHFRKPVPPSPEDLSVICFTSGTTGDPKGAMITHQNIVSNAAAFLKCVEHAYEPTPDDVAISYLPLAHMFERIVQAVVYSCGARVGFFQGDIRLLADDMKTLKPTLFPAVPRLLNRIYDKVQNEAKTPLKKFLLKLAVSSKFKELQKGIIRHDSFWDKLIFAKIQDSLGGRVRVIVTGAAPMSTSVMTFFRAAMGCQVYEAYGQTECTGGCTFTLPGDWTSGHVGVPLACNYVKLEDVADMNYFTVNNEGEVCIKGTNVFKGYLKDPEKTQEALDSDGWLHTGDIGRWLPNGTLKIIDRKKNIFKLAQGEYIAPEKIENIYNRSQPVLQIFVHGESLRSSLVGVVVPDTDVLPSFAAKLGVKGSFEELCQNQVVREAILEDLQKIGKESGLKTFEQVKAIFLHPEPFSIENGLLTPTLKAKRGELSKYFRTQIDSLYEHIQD
row,Structure (SMILES),IC50 [nM]
1,"CC(Oc1ccc(C(=O)NS(=O)(=O)CCN)c(Cl)c1Cl)c1cccc(Oc2ccccc2)c1 (racemic) [rac-(R)-N-((2-aminoethyl)sulfonyl)-2,3-dichloro-4-(1-(3-phenoxyphenyl)ethoxy)benzamide]",> 500
2,CC(Oc1ccc(C(=O)NS(=O)(=O)CCN)cc1C(F)(F)F)c1cccc(Oc2ccccc2)c1 (racemic) [rac-(R)-N-((2-aminoethyl)sulfonyl)-4-(1-(3-phenoxyphenyl)ethoxy)-3-(trifluoromethyl)benzamide],100 to 500
3,"CC[C@@H](Oc1ccc(C(=O)NS(=O)(=O)N2CCC(OC3CCN(C)CC3)CC2)c(F)c1F)c1cc(OC2CC(OC)C2)ccn1 (stereo partly drawn) [2,3-difluoro-4-((R)-1-(4-((1R,3R)-3-methoxycyclobutoxy)pyridin-2-yl)propoxy)-N-((4-((1-methylpiperidin-4-yl)oxy)piperidin-1-yl)sulfonyl)benzamide]",> 500
4,"CC[C@@H](Oc1ccc(C(=O)NS(=O)(=O)N2CCN(C)CC2)c(F)c1F)c1cc(OC2CC(OC)C2)ccn1 (stereo partly drawn) [2,3-difluoro-4-((R)-1-(4-((1R,3R)-3-methoxycyclobutoxy)pyridin-2-yl)propoxy)-N-((4-methylpiperazin-1-yl)sulfonyl)benzamide]",> 500
5,"CC[C@@H](Oc1ccc(C(=O)NS(=O)(=O)N2CC3CC(C2)N3C)c(F)c1F)c1ccc(Oc2ccccn2)cn1 [2,3-difluoro-N-((6-methyl-3,6-diazabicyclo[3.1.1]heptan-3-yl)sulfonyl)-4-((R)-1-(5-(pyridin-2-yloxy)pyridin-2-yl)propoxy)benzamide]",< 100
6,"CC[C@@H](Oc1ccc(C(=O)NS(=O)(=O)N2CC3CCC(C2)N3C)c(F)c1F)c1ccc(Oc2ccccn2)cn1 [2,3-difluoro-N-((8-methyl-3,8-diazabicyclo[3.2.1]octan-3-yl)sulfonyl)-4-((R)-1-(5-(pyridin-2-yloxy)pyridin-2-yl)propoxy)benzamide]",< 100
7,"CCOc1ccc(C(C)Oc2ccc(C(=O)NS(=O)(=O)N3CCN(C)CC3)c(F)c2F)nc1 (centres unmarked) [4-(1-(5-ethoxypyridin-2-yl)ethoxy)-2,3-difluoro-N-((4-methylpiperazin-1-yl)sulfonyl)benzamide]",> 500
8,"CCOc1ccc(C(C)Oc2ccc(C(=O)NS(=O)(=O)C3CCNCC3)c(F)c2F)nc1 (centres unmarked) [4-(1-(5-ethoxypyridin-2-yl)ethoxy)-2,3-difluoro-N-(piperidin-4-ylsulfonyl)benzamide]",> 500
9,CCOc1ccc(C(CC)Oc2ccc(C(=O)NS(=O)(=O)CCCN3CCOCC3)cc2C(F)(F)F)nc1 (centres unmarked) [4-(1-(5-ethoxypyridin-2-yl)propoxy)-N-((3-morpholinopropyl)sulfonyl)-3-(trifluoromethyl)benzamide],100 to 500
10,"CC[C@@H](Oc1ccc(C(=O)NS(=O)(=O)c2ccc(O[C@@H]3CCCN(C)C3)cc2)c(F)c1F)c1ccc(OCC2CC2)cn1 [4-((R)-1-(5-(cyclopropylmethoxy)pyridin-2-yl)propoxy)-2,3-difluoro-N-((4-(((R)-1-methylpiperidin-3-yl)oxy)phenyl)sulfonyl)benzamide]",100 to 500
11,"CC[C@@H](Oc1ccc(C(=O)NS(=O)(=O)c2ccc(OC3CCN(C)CC3)cc2)c(F)c1F)c1ccc(OCCOC)cn1 [(R)-2,3-difluoro-4-(1-(5-(2-methoxyethoxy)pyridin-2-yl)propoxy)-N-((4-((1-methylpiperidin-4-yl)oxy)phenyl)sulfonyl)benzamide]",> 500
12,"CC[C@@H](Oc1ccc(C(=O)NS(=O)(=O)N2CCC(OC3CCN(C)CC3)CC2)c(F)c1F)c1ccc(OCCOC)cn1 [(R)-2,3-difluoro-4-(1-(5-(2-methoxyethoxy)pyridin-2-yl)propoxy)-N-((4-((1-methylpiperidin-4-yl)oxy)piperidin-1-yl)sulfonyl)benzamide]",> 500
13,"CC[C@@H](Oc1ccc(C(=O)NS(=O)(=O)N2CC(OC3CCN(C)CC3)C2)c(F)c1F)c1ccc(Oc2ccccn2)cn1 [(R)-2,3-difluoro-N-((3-((1-methylpiperidin-4-yl)oxy)azetidin-1-yl)sulfonyl)-4-(1-(5-(pyridin-2-yloxy)pyridin-2-yl)propoxy)benzamide]",100 to 500
14,"CC[C@@H](Oc1ccc(C(=O)NS(=O)(=O)N2CC3=C(CN(C)C3)C2)c(F)c1F)c1ccc(Oc2ccccn2)cn1 [(R)-2,3-difluoro-N-((5-methyl-3,4,5,6-tetrahydropyrrolo[3,4-c]pyrrol-2(1H)-yl)sulfonyl)-4-(1-(5-(pyridin-2-yloxy)pyridin-2-yl)propoxy)benzamide]",100 to 500
15,"CC[C@@H](Oc1ccc(C(=O)NS(=O)(=O)N2CC3(CN(C)C3)C2)c(F)c1F)c1ccc(Oc2ccccn2)cn1 [(R)-2,3-difluoro-N-((6-methyl-2,6-diazaspiro[3.3]heptan-2-yl)sulfonyl)-4-(1-(5-(pyridin-2-yloxy)pyridin-2-yl)propoxy)benzamide]",100 to 500
16,"CC[C@@H](Oc1ccc(C(=O)NS(=O)(=O)N2CC(OC3CCN(C)CC3)C2)c(F)c1F)c1ccc(OCC2CC2)cn1 [(R)-4-(1-(5-(cyclopropylmethoxy)pyridin-2-yl)propoxy)-2,3-difluoro-N-((3-((1-methylpiperidin-4-yl)oxy)azetidin-1-yl)sulfonyl)benzamide]",100 to 500
17,"CC[C@@H](Oc1ccc(C(=O)NS(=O)(=O)N2CCC(OCCN3CCCC3)CC2)c(F)c1F)c1ccc(OCC2CC2)cn1 [(R)-4-(1-(5-(cyclopropylmethoxy)pyridin-2-yl)propoxy)-2,3-difluoro-N-((4-(2-(pyrrolidin-1-yl)ethoxy)piperidin-1-yl)sulfonyl)benzamide]",100 to 500

# Next, values leading:
row,IC50 [nM],Structure (SMILES)
1,< 100,"CC(Oc1ccc(C(=O)NS(=O)(=O)N2CCN(C)CC2)c(Cl)c1Cl)c1cccc(Oc2ccccc2)c1 (racemic) [rac-(R)-2,3-dichloro-N-((4-methylpiperazin-1-yl)sulfonyl)-4-(1-(3-phenoxyphenyl)ethoxy)benzamide]"
2,< 100,"CC(Oc1ccc(C(=O)NS(=O)(=O)c2ccc(CN)cc2)c(Cl)c1Cl)c1cccc(Oc2ccccc2)c1 (racemic) [rac-(R)-N-((4-(aminomethyl)phenyl)sulfonyl)-2,3-dichloro-4-(1-(3-phenoxyphenyl)ethoxy)benzamide]"
3,< 100,Cc1cc(C(=O)NS(=O)(=O)c2ccc(CN)cc2)ccc1OC(C)c1cccc(Oc2ccccc2)c1 (racemic) [rac-(R)-N-((4-(aminomethyl)phenyl)sulfonyl)-3-methyl-4-(1-(3-phenoxyphenyl)ethoxy)benzamide]
4,< 100,"CC[C@@H](Oc1ccc(C(=O)NS(=O)(=O)c2ccc(O[C@@H]3CCCN(C)C3)cc2)c(F)c1F)c1ccc(Oc2ccccn2)cn1 [2,3-difluoro-N-((4-(((R)-1-methylpiperidin-3-yl)oxy)phenyl)sulfonyl)-4-((R)-1-(5-(pyridin-2-yloxy)pyridin-2-yl)propoxy)benzamide]"
5,< 100,"CC[C@@H](Oc1ccc(C(=O)NS(=O)(=O)c2ccc(O[C@H]3CCCN(C)C3)cc2)c(F)c1F)c1ccc(Oc2ccccn2)cn1 [2,3-difluoro-N-((4-(((S)-1-methylpiperidin-3-yl)oxy)phenyl)sulfonyl)-4-((R)-1-(5-(pyridin-2-yloxy)pyridin-2-yl)propoxy)benzamide]"
6,< 100,"CNCc1ccc(S(=O)(=O)NC(=O)c2ccc(OCc3cccc(Oc4ccccc4)c3)c(F)c2F)cc1 [2,3-difluoro-N-((4-((methylamino)methyl)phenyl)sulfonyl)-4-((3-phenoxybenzyl)oxy)benzamide]"
7,< 100,CCOc1ccc(C(CC)Oc2ccc(C(=O)NS(=O)(=O)c3ccc(OCCNC)cc3)cc2C(F)(F)F)nc1 (centres unmarked) [4-(1-(5-ethoxypyridin-2-yl)propoxy)-N-((4-(2-(methylamino)ethoxy)phenyl)sulfonyl)-3-(trifluoromethyl)benzamide]
8,< 100,"CC[C@@H](Oc1ccc(C(=O)NS(=O)(=O)c2ccc(O[C@H]3CCCN(C)C3)cc2)c(F)c1F)c1ccc(OCC2CC2)cn1 [4-((R)-1-(5-(cyclopropylmethoxy)pyridin-2-yl)propoxy)-2,3-difluoro-N-((4-(((S)-1-methylpiperidin-3-yl)oxy)phenyl)sulfonyl)benzamide]"
9,< 100,"CC[C@@H](Oc1ccc(C(=O)NS(=O)(=O)N2CCN(CCCF)CC2)c(F)c1F)c1ccc(Oc2ccccn2)cn1 [(R)-2,3-difluoro-N-((4-(3-fluoropropyl)piperazin-1-yl)sulfonyl)-4-(1-(5-(pyridin-2-yloxy)pyridin-2-yl)propoxy)benzamide]"
10,< 100,"CC[C@@H](Oc1ccc(C(=O)NS(=O)(=O)N2CCC(OC3CN(C)C3)CC2)c(F)c1F)c1ccc(Oc2ccccn2)cn1 [(R)-2,3-difluoro-N-((4-((1-methylazetidin-3-yl)oxy)piperidin-1-yl)sulfonyl)-4-(1-(5-(pyridin-2-yloxy)pyridin-2-yl)propoxy)benzamide]"
11,< 100,"CC[C@@H](Oc1ccc(C(=O)NS(=O)(=O)c2ccc(OCCNC)cc2)c(F)c1F)c1ccc(OCC2CC2)cn1 [(R)-4-(1-(5-(cyclopropylmethoxy)pyridin-2-yl)propoxy)-2,3-difluoro-N-((4-(2-(methylamino)ethoxy)phenyl)sulfonyl)benzamide]"
12,< 100,"CC[C@@H](Oc1ccc(C(=O)NS(=O)(=O)N2CCN(CCCF)CC2)c(F)c1F)c1ccc(OCC2CC2)cn1 [(R)-4-(1-(5-(cyclopropylmethoxy)pyridin-2-yl)propoxy)-2,3-difluoro-N-((4-(3-fluoropropyl)piperazin-1-yl)sulfonyl)benzamide]"
